Target: T1, purified LasB protein from P. aeruginosa (Pseudomonas aeruginosa, UniProt P14756)
T1 construct: purchased Merck or Charles River Laboratories
Assay: Fluorometric assay to determine Ki (Assay 1)
Type: biochemical
Details: Ki (μM) Assay 1, purified LasB, substrate Abz-Ala-Gly-Leu-Ala-p-Nitro-Benzyl-Amide 250 μM, Ki calculated from IC50; inhibitor 0.006 to 200 μM
Procedure: Experiments were therefore conducted (1) to measure the potency of inhibition of compounds of the invention against purified Pseudomonas aeruginosa LasB enzyme and also experiments were conducted (2) to measure the ability of compounds of the invention to inhibit LasB-catalysed elastin degradation. The first assay uses a commercial fluorescent synthetic peptide and purified LasB enzyme. The LasB hydrolysis kinetics are measured allowing the determination of the IC50 and Ki of the inhibitors; the second is a more physiological assay using dialysed Pseudomonas aeruginosa supernatant as source of enzyme, plus its natural substrate Elastin. It is an “end point assay” that determines the percentage of LasB inhibition by each compound for one particular time point and inhibitor concentration. Technical details are described below:
This assay uses commercially available substrate (Abz-Ala-Gly-Leu-Ala-p-Nitro-Benzyl-Amide (Ex: 340 nm, Em: 415 nm) from Peptide International) and purified LasB protein from P. aeruginosa (provided by Merck or Charles River Laboratories). It is performed to determine LasB elastase activity and assess compound inhibition in 96-well plate format. Some compounds of Formula (I) were assessed using the method of Assay 1 (described below). Other compounds of Formula (I) were assessed using the alternative but equivalent method of Assay 2 (described below).
Method: 10 to 140 ng/ml purified LasB is incubated with 250 μM Abz-Ala-Gly-Leu-Ala-p-Nitro-Benzyl-Amide in 50 mM Tris-HCl pH 7.4, 2.5 mM CaCl2), 0.01% of Triton X100 at 37° C. LasB activity (corresponding to fluorescence emission induced by substrate hydrolysis) is measured over 30 min at 37° C. with a fluorescence plate reader such as the Perkin Elmer Envision or similar. Different range of inhibitor concentrations are routinely assessed depending of inhibitor potency from 0.006 to 200 μM (Assay 1; 2-fold dilutions series) or from 0.0016 to 200 μM (Assay 2; 2-fold dilutions series) in order to determine IC50.
The equation used to calculate the Ki from IC50 is: Ki=IC50/(1+([S]/Km)) where [S]=250 μM and Km=214 μM.

T1 sequence (P14756 198-498): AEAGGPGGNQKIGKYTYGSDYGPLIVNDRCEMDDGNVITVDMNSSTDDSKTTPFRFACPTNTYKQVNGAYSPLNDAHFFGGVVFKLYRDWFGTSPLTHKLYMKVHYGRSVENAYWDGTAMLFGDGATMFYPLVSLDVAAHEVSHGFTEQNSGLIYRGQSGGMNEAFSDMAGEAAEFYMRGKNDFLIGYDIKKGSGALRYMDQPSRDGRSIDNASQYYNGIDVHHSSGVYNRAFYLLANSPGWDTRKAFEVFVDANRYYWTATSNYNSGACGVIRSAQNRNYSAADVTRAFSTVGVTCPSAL

With `NC1CC(Oc2ccc3nc(CNC(=O)C4(CC(=O)O)Cc5ccccc5C4)sc3c2)C1` (mixture of isomers) [Example 78, 2-[2-[[6-(3-aminocyclobutoxy)-1,3-benzothiazol-2-yl]methylcarbamoyl]indan-2-yl]acetic acid] the Ki was 0.3 to 2 µM.

`O=C(O)CC1(C(=O)NCCc2nc3ccccc3o2)Cc2ccccc2C1` [Example 31, 2-[2-[2-(1,3-benzoxazol-2-yl)ethylcarbamoyl]indan-2-yl]acetic acid] was tested, and the Ki was 2 to 10 µM.

`C[N+](C)(C)CCNc1ccc2sc(CNC(=O)C3(CC(=O)[O-])Cc4ccccc4C3)nc2c1` [Example 77, 2-[2-[[5-[2-(trimethylammonio)ethylamino]-1,3-benzothiazol-2-yl]methylcarbamoyl]indan-2-yl]acetate] was tested, and the Ki was 0.3 to 2 µM.

Work on `CN(C)C1CC(Oc2ccc3nc(CNC(=O)C4(CC(=O)O)Cc5ccccc5C4)sc3c2)C1` (stereo not shown) [Example 79, 2-[2-[[6-[3-(dimethylamino)cyclobutoxy]-1,3-benzothiazol-2-yl]methylcarbamoyl]indan-2-yl]acetic acid] yielded a Ki of 0.3 to 2 µM.

Compound `CN(C)Cc1ccc2nc(CNC(=O)C3(CC(=O)O)Cc4ccccc4C3)sc2c1` [Example 81, 2-[2-[[6-[(dimethylamino)methyl]-1,3-benzothiazol-2-yl]methylcarbamoyl]indan-2-yl]acetic acid] has a Ki of 2 to 10 µM.

`C[N+](C)(C)Cc1ccc2nc(CNC(=O)C3(CC(=O)[O-])Cc4ccccc4C3)sc2c1` [Example 82, 2-[2-[[6-[(trimethylammonio)methyl]-1,3-benzothiazol-2-yl]methylcarbamoyl]indan-2-yl]acetate] was tested, and the Ki was 2 to 10 µM.

With `NCCc1ccc2sc(CNC(=O)C3(CC(=O)O)Cc4ccccc4C3)nc2c1` [Example 83, 2-[2-[[5-(2-aminoethyl)-1,3-benzothiazol-2-yl]methylcarbamoyl]indan-2-yl]acetic acid] the Ki was 0.3 to 2 µM.

`CN(C)Cc1ccc2sc(CNC(=O)C3(CC(=O)O)Cc4ccccc4C3)nc2c1` [Example 84, 2-[2-[[5-[(dimethylamino)methyl]-1,3-benzothiazol-2-yl]methylcarbamoyl]indan-2-yl]acetic acid] was tested, and the Ki was 0.3 to 2 µM.

In the case of `C[N+](C)(C)Cc1ccc2sc(CNC(=O)C3(CC(=O)[O-])Cc4ccccc4C3)nc2c1` [Example 85, 2-[2-[[5-[(trimethylammonio)methyl]-1,3-benzothiazol-2-yl]methylcarbamoyl]indan-2-yl]acetate], the Ki is reported as 0.3 to 2 µM.

In the case of `CN(C)CCc1ccc2sc(CNC(=O)C3(CC(=O)O)Cc4ccccc4C3)nc2c1` [Example 97, 2-[2-[[5-[2-(dimethylamino)ethyl]-1,3-benzothiazol-2-yl]methylcarbamoyl]indan-2-yl]acetic acid], the Ki is reported as 0.3 to 2 µM.

With `C[N+](C)(C)CCc1ccc2sc(CNC(=O)C3(CC(=O)[O-])Cc4ccccc4C3)nc2c1` [Example 98, 2-[2-[[5-[2-(trimethylammonio)ethyl]-1,3-benzothiazol-2-yl]methylcarbamoyl]indan-2-yl]acetate] the Ki was 0.3 to 2 µM.

`CC(C)(N)c1nnc([C@H](Cc2c[nH]c3ccccc23)NC(=O)C2(CC(=O)O)Cc3ccccc3C2)o1` [Example 119, (S)-2-(2-((1-(5-(2-aminopropan-2-yl)-1,3,4-oxadiazol-2-yl)-2-(1H-indol-3-yl)ethyl)carbamoyl)-2,3-dihydro-1H-inden-2-yl)acetic acid] was tested, and the Ki was 0.3 to 2 µM.

Compound `O=C(O)CC1(C(=O)NCc2nc3ccccc3s2)Cc2cc(Cl)c(Cl)cc2C1` [Example 121, 2-(2-((benzo[d]thiazol-2-ylmethyl)carbamoyl)-5,6-dichloro-2,3-dihydro-1H-inden-2-yl)acetic acid] has a Ki of 0.3 to 2 µM.
